“Also recorded” adds a separate entry of the source.

Data set [1] has as its system human retinal pigment epithelial cells (ARPE-19, HRPE). Description: Formation of hydroxylated derivatives from VLC-PUFA in human RPE cells in culture (LC-MS/MS). Format: in vitro ADME. The note with it: 34:6n3 100 nM, 12-16 hours, culture media. How it is done:
FIG. 2. Evidence of cell-derived hydroxylated derivatives (29-hydroxy-34:6 and 22,29-dihydroxy-34:6) derived from the omega-3 VLC-PUFA 34:6n3 (C34:6) from human retinal pigment epithelial cells in culture. Human retinal pigment epithelial cells (spontaneously transformed ARPE-19 cells) or primary human retinal pigment epithelial cells (HRPE) were incubated with 34:6n3 (100 nM) during 12-16 hours and then the culture media collected lipid extracted and run in LC-MS/MS.
Evidence for the formation of hydroxylated VLC-PUFA in cells as postulated in FIG. 1, and as documented in FIG. 2. […] The preferred structures of 2 are 2a and 2b, while the preferred structures of 3 are 3a and 3b. […] The cell-derived hydroxylated derivatives 2 and 3 were obtained from human retinal pigment epithelial cells in culture. Human retinal pigment epithelial cells (spontaneously transformed ARPE-19 cells) or primary human retinal pigment epithelial cells (HRPE) were incubated with 34:6n3 (100 nM) during 12-16 hours and then the culture media collected lipid extracted and run in LC-MS/MS. […] The stereochemistry of the mono- and di-hydroxy compounds were not possible to determine, but they were presumed to be the same as those derived from DHA.

A further data set has as its system Bid. Description: Bid protein by western blot in ARPE-19 cells under oxidative stress. Format: cell-based, human. From the text:
FIG. 6. (A) VLC-PUFA and elovanoids ELV1 and ELV2 mediated effect on Bid upregulation in ARPE-19 cells under stress. […] (B) VLC-PUFA and ELV1 and ELV2 compounds mediated upregulation of Bid in ARPE-19 cells under stress.
FIG. 6—(A) VLC-PUFA and elovanoids ELV1 and ELV2 mediated effect on Bid upregulation in ARPE-19 cells under stress. […] (B) VLC-PUFA and ELV1 and ELV2 compounds mediated upregulation of Bid in ARPE-19 cells under stress.

The subject of a further data set is Bim. Description: Bim protein in ARPE-19 cells under oxidative stress. Type of data set: cell-based, human. To be noted: ARPE-19 cells under stress. The text has this: FIG. 7. (A) VLC-PUFA and ELV1 and ELV2 compounds mediated downregulation of Bim in ARPE-19 cells under stress. Bim, another class of Bcl2 family, has been tested like Bid in this figure to confirm our previous results. VLC-PUFA and elovanoids protected against the upregulation of Bim by OS, similar to Bid, in RPE cells under stress. (B) VLC-PUFA and elovanoids mediated effect on Bim downregulation in ARPE-19 cells under stress.
FIG. 7—A) VLC-PUFA and ELV1 and ELV2 compounds mediated […] of Bim in ARPE-19 cells under stress. Bim, another class of Bcl2 family, has been tested like Bid in this figure to confirm our previous results. VLC-PUFA and elovanoids protected the upregulation of Bim by OS, similar to Bid, in RPE cells under stress. (B) VLC-PUFA and elovanoids mediated effect on Bim upregulation in ARPE-19 cells under stress.

A further data set relates to Bax. Kind of data set: Bax expression in LOX-D RPE cells under oxidative stress. Format: cell-based, human. How it is done:
(§1) FIG. 8. (A) Bcl-xL-upregulation by elovanoids ELV1 and ELV2 in ARPE-19 cells under stress. Bcl-xL is the antiapoptotic Bcl2 family protein. Like proapoptotic proteins Bid and Bim, the effect of elovaniod precursors on the antiapoptotic protein Bcl-xL was tested in this figure in RPE cells under OS. […] (B) Effect of NPD1, ELV1 and ELV2 on Bax expression in LOX-D cells under stress. Proapoptotic Bax was tested in this figure. […] C) VLC-PUFA and elovanoids ELV1 and ELV2 mediated effect on Bax upregulation in ARPE-19 cells under stress. In this experiment, elovanoid precursors along with VLC-PUFA were tested on the downregulation of the Bax protein in RPE cells under stress.
as §1, with “8—(A)” for “8. (A)”

For data set [2], the system named is neuronal cells in primary cultures. Kind of data set: NMDA-induced toxicity in neuronal cells in primary culture, MTT assay for cell viability. Format: cell-based. From the text:
FIG. 11. […] In several neurological and neurodegenerative diseases, such as stroke, epilepsy, status epilepticus, traumatic head injury, etc., as well as ophthalmological diseases, such as glaucoma, an excessive presynaptic release of the excitatory neurotransmitter glutamate takes place. As a consequence, glutamate transporters that function to remove extracellular glutamate from astrocytes and neurons are overwhelmed and the NMDA-type glutamate receptor is over-activated. This receptor is a calcium channel that therefore leads to a flooding of calcium into the postsynaptic cell. The overall phenomena is refer to as excitotoxicity that in turn leads to neuronal damage and cell death. MK801 is a known blocker of this receptor used here as a control.
In several neurological and neurodegenerative diseases, such as stroke, epilepsy, status epilepticus, traumatic head injury, etc., as well as ophthalmological diseases, such as glaucoma, an excessive presynaptic release of the excitatory neurotransmitter glutamate takes place. As a consequence, glutamate transporters that function to remove extracellular glutamate from astrocytes and neurons are overwhelmed and the NMDA-type glutamate receptor is over-activated. This receptor is a calcium channel that therefore leads to a flooding of calcium into the postsynaptic cell. The overall phenomena is refer to as excitotoxicity that in turn leads to neuronal damage and cell death. MK801 is a known blocker of this receptor used here as a control.

For the compound `CC/C=C\C/C=C\C/C=C\C/C=C\C/C=C\C/C=C\CCCCCCCCCCCCCCC(=O)O` [C34:6], in data set [1], the “conversion to mono- and di-hydroxylated derivatives in cell culture (FIG. 2)” value is “yielded a hydroxylated product; also recorded: could be detected”.
Regarding `CC/C=C\C[C@H](O)\C=C/C=C/C=C/[C@H](O)C/C=C\C/C=C\CCCCCCCCCCCCCCC(=O)O` [ELV2, (16Z,19Z,22R,23E,25E,27Z,29S,31Z)-22,29-dihydroxytetratriaconta-16,19,23,25,27,31-hexaenoic acid], the “effect on Bid protein upregulated by OS (FIG. 6)” value with Bid is recorded as “potent downregulation”. In addition, the “effect on Bim upregulation by OS (FIG. 7)” value in the data set on Bim was “potent downregulation”. Besides, in the data set on Bax, the “effect on Bax upregulation by OS (FIG. 8B)” value is on record as “potent downregulation”. Also, the “protection of neuronal cells from NMDA-induced toxicity (FIG. 11A)” value in data set [2] (200 nM) is listed as “potently protects neuronal cells”. In addition, in data set [2] (neuronal cultures, MTT), the “cell death and cell viability with NMDA in increasing concentrations (FIG. 11)” value is “reduces cell death and increases cell viability”.

Values taken from patent publication US12565467B2, “Compounds, compositions, and methods for the treatment of inflammatory, degenerative, and neurodegenerative diseases” (Board of Supervisors of Louisiana State University and …, priority 2015, dated 2026).
